The target in one data set is T1, human H3 receptor (Homo sapiens, UniProt Q9Y5N1).
T1 construct: expressed in transfected cells
Description: Human H3 radioligand binding ([3H]-N-alpha-methylhistamine, SPA). Conditions: human H3 binding, Table D; read-out: Human H3 Ki. The procedure, abridged: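 SPA competition binding on membranes from CHO cells stably expressing human H3 receptor (10 μg protein/well) with ~1 nM [3H]-N-alpha-methylhistamine and compound at 0.01 nM-30 μM. Incubation 4 h at room temperature in 50 mM Tris-HCl pH 7.4, 5 mM MgCl2, 0.1% BSA; non-specific binding defined with 10 μM clobenpropit.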

The target in data set [1] is T2, rat histamine H3 receptor (Rattus norvegicus, UniProt Q9QYN8).
T2 construct: encoding the entire 445-amino-acid rat histamine H3 receptor; expressed in transfected cells; membrane preparation
T2 sequence (Q9QYN8 whole entry): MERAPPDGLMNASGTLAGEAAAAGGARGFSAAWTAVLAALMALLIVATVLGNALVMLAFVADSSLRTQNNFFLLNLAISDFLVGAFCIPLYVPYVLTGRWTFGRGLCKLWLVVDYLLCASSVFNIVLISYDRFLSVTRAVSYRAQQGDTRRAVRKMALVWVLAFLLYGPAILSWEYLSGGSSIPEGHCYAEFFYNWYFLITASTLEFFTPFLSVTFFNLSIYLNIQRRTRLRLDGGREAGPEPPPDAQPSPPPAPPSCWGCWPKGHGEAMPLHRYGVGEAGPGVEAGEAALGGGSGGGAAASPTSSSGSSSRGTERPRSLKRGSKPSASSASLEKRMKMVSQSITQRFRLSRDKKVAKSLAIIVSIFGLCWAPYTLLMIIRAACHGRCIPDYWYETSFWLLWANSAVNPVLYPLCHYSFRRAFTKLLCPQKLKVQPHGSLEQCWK
Description: Rat H3 radioligand binding ([3H]-N-alpha-methylhistamine, SPA). Conditions: rat H3 binding, Table D; read-out: Rat H3 Ki. The procedure, abridged: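 Membranes from CHO-A3 cells stably expressing full-length rat H3 receptor (10 μg protein/well) incubated 4 h at room temperature, protected from light, with ~1 nM [3H]-N-alpha-methylhistamine and compound (0.01 nM-30 μM) in 50 mM Tris HCl pH 7.4, 5 mM MgCl2, 0.1% BSA. Binding read by SPA; 10 μM clobenpropit defined non-specific binding.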

Each structure is given as a SMILES string. A value given as a limit tells only on which side of the number the result lay.

This passage reports Ki and melting point results from patent publication US8513232B2, “Substituted spirocyclic piperidine derivatives as histamine-3 (H3) receptor ligands” (Cephalon, Inc., priority 2008, dated 2013).

T1 sequence (Q9Y5N1 whole entry): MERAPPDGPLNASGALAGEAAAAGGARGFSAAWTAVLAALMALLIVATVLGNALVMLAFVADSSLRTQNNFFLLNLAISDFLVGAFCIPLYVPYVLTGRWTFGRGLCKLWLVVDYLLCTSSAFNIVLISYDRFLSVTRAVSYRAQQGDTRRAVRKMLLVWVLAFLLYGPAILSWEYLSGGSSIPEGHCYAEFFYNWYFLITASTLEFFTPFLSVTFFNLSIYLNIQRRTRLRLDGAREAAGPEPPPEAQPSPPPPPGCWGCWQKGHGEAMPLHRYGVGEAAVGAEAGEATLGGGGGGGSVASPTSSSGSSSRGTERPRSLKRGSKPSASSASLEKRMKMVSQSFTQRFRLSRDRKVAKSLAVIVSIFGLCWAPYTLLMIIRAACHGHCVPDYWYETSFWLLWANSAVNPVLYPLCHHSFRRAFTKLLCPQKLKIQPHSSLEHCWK

One may read the Ki as the equilibrium dissociation constant of an inhibitor or competing ligand from its target. One may read the melting point as the temperature, or range, at which the solid turns liquid. `NC(=O)c1ccc(-c2ccc3c(c2)COC2(CCN(C4CCC4)CC2)O3)cc1O` [Example 743] came in with a melting point of 267 to 269 °C. Further, on human H3 receptor, the Ki is below 0.2 µM. Moreover, in data set [1], the Ki was below 0.2 µM.
As to `Cc1ncccc1-c1ccc2c(c1)COC1(CCN(C3CCC3)CC1)O2` [Example 744], the melting point lay within 197 to 199 °C. Besides, at human H3 receptor, the inhibition constant Ki was below 0.2 µM. Besides, the Ki in data set [1] is below 0.2 µM.
Regarding `Cc1ccncc1-c1ccc2c(c1)COC1(CCN(C3CCC3)CC1)O2` [Example 745], the melting point was in the range of 200 to 202 °C. Also, the Ki at human H3 receptor was below 0.2 µM. Also, the inhibition constant Ki in data set [1] was below 0.2 µM.
With `COc1nc(C)ccc1-c1ccc2c(c1)COC1(CCN(C3CCC3)CC1)O2` [Example 746], the melting point is 61 to 63 °C. At human H3 receptor, the Ki is below 0.2 µM. Also, in data set [1], the Ki was below 0.2 µM.
For `COc1ncccc1-c1ccc2c(c1)COC1(CCN(C3CCC3)CC1)O2` [Example 747], the melting point lay in the range of 210 to 212 °C. Moreover, at human H3 receptor, the Ki was below 0.2 µM. In addition, in data set [1], the inhibitory constant (Ki) was below 0.2 µM.
Compound `Cc1ccc(-c2ccc3c(c2)COC2(CCN(C4CCC4)CC2)O3)c(C)n1` [Example 748] had a melting point of 190 to 192 °C. Moreover, the Ki on human H3 receptor was below 0.2 µM. Moreover, the Ki in data set [1] was below 0.2 µM.
In the case of `COc1ccncc1-c1ccc2c(c1)COC1(CCN(C3CCC3)CC1)O2` [Example 749], the melting point was 58 to 60 °C. In addition, the Ki at human H3 receptor was below 0.2 µM. In addition, the Ki in data set [1] was below 0.2 µM.
In turn, `c1cc2c(cc1-c1cn[nH]c1)COC1(CCN(C3CCC3)CC1)O2` [Example 750] gave a melting point of 205 to 207 °C. Further, on human H3 receptor, the Ki was below 0.2 µM. Moreover, the Ki in data set [1] is below 0.2 µM.
Compound `Cc1cc(C(N)=O)cc(C)c1-c1ccc2c(c1)COC1(CCN(C3CCC3)CC1)O2` [Example 751] gave a melting point of 156 to 158 °C. In addition, on human H3 receptor, the Ki was below 0.2 µM. Moreover, the Ki in data set [1] was below 0.2 µM.
`Cc1cnc(C)c(-c2ccc3c(c2)COC2(CCN(C4CCC4)CC2)O3)n1` [Example 752] yielded a melting point of 102 to 103 °C. In addition, the Ki on human H3 receptor was below 0.2 µM. In data set [1], the Ki was below 0.2 µM.
`FC(F)(F)c1ncccc1-c1ccc2c(c1)COC1(CCN(C3CCC3)CC1)O2` [Example 753]: the melting point was 190 to 192 °C. In addition, the inhibitory constant (Ki) at human H3 receptor lay within 0.2 to 1 µM. For the same compound, in data set [1], the Ki was 0.2 to 1 µM.
As for `COc1cc(-c2ccc3c(c2)COC2(CCN(C4CCC4)CC2)O3)c(F)cn1` [Example 754], the melting point was 135 to 136 °C. Besides, the Ki on human H3 receptor is below 0.2 µM. In data set [1], the inhibition constant Ki is below 0.2 µM.
`Cc1cc(=O)n(CC(F)(F)F)cc1-c1ccc2c(c1)COC1(CCN(C3CCC3)CC1)O2` [Example 755] gave a melting point of 60 to 62 °C. At human H3 receptor, the Ki is below 0.2 µM. For the same compound, in data set [1], the Ki was below 0.2 µM.
As for `Cc1cccc(C)c1-c1ccc2c(c1)COC1(CCN(C3CCC3)CC1)O2` [Example 756], the melting point lay in the range of 58 to 60 °C. In addition, the Ki at human H3 receptor was below 0.2 µM. The Ki in data set [1] lay in the range of 0.2 to 1 µM.
The like results for `c1ccn2ncc(-c3ccc4c(c3)COC3(CCN(C5CCC5)CC3)O4)c2c1` [Example 757] were, in that order, 158 to 160 °C, below 0.2 µM and below 0.2 µM.
The like results for `CC(C)n1ccc(-c2ccc3c(c2)COC2(CCN(C4CCC4)CC2)O3)cc1=O` [Example 758] were, in that order, 218 to 220 °C, below 0.2 µM and below 0.2 µM.
The like results for `Cc1cc(=O)n(C(C)C)cc1-c1ccc2c(c1)COC1(CCN(C3CCC3)CC1)O2` [Example 759] were, in that order, 65 to 68 °C, below 0.2 µM and below 0.2 µM.
On to `Cc1c(-c2ccc3c(c2)COC2(CCN(C4CCC4)CC2)O3)ccc(=O)n1C` [Example 760], for which the melting point is 59 to 61 °C. Moreover, the Ki at human H3 receptor is below 0.2 µM. Besides, the Ki in data set [1] is below 0.2 µM.
Consider `COc1cc(-c2ccc3c(c2)COC2(CCN(C4CCC4)CC2)O3)cn(C)c1=O` [Example 761], for which the melting point lay in the range of 70 to 72 °C. On human H3 receptor, the Ki is below 0.2 µM. Also, the Ki in data set [1] is below 0.2 µM.
`CCOC(=O)c1cc(=O)n(C)cc1-c1ccc2c(c1)COC1(CCN(C3CCC3)CC1)O2` [Example 762] gave a melting point of 71 to 74 °C. The Ki on human H3 receptor was below 0.2 µM. For the same compound, the Ki in data set [1] was below 0.2 µM.
`Cc1c(-c2ccc3c(c2)COC2(CCN(C4CCC4)CC2)O3)ccc(=O)n1C(F)F` [Example 763] returned a melting point of 143 to 145 °C. The Ki at human H3 receptor is below 0.2 µM. The Ki in data set [1] was below 0.2 µM.
Take `Cc1cc(=O)n(C(F)F)cc1-c1ccc2c(c1)COC1(CCN(C3CCC3)CC1)O2` [Example 764]: the melting point lay in the range of 119 to 121 °C. For the same compound, the Ki at human H3 receptor was below 0.2 µM. In addition, the inhibition constant (Ki) in data set [1] was below 0.2 µM.
The compound `CCSc1c[nH]c(=O)cc1-c1ccc2c(c1)COC1(CCN(C3CCC3)CC1)O2` [Example 765] returned a melting point of 85 to 88 °C. The Ki on human H3 receptor was below 0.2 µM. For the same compound, the Ki in data set [1] is below 0.2 µM.
The compound `O=c1cc(-c2ccc3c(c2)COC2(CCN(C4CCC4)CC2)O3)c(F)c[nH]1` [Example 766] displayed a melting point of 254 to 255 °C. At human H3 receptor, the Ki is below 0.2 µM. Besides, the Ki in data set [1] is below 0.2 µM.
Turning to `CCc1[nH]c(=O)ccc1-c1ccc2c(c1)COC1(CCN(C3CCC3)CC1)O2` [Example 767], the melting point lay within 230 to 231 °C. Moreover, the Ki at human H3 receptor is below 0.2 µM. Also, in data set [1], the Ki was below 0.2 µM.
For the compound `COc1ncc(-c2ccc3c(c2)COC2(CCN(C4CCC4)CC2)O3)cc1CO` [Example 768], the melting point lay in the range of 150 to 151 °C. The Ki at human H3 receptor is below 0.2 µM. Besides, the Ki in data set [1] is below 0.2 µM.
Regarding `COc1cc(C)c(-c2ccc3c(c2)CCC2(CCN(C4CCC4)CC2)O3)cn1` [Example 769], the melting point is 127 to 128 °C. Further, the Ki at human H3 receptor is below 0.2 µM. Besides, the Ki in data set [1] was below 0.2 µM.
The compound `Cn1cc(-c2ccc3c(c2)COC2(CCN(C4CCC4)CC2)O3)c(CO)cc1=O` [Example 770] showed a melting point of 120 to 123 °C. At human H3 receptor, the Ki was below 0.2 µM. For the same compound, the Ki in data set [1] was below 0.2 µM.
On to `Cc1cc(=O)[nH]cc1-c1ccc2c(c1)CCC1(CCN(C3CCC3)CC1)O2` [Example 771], for which the melting point lay in the range of 252 to 254 °C. For the same compound, the Ki at human H3 receptor was below 0.2 µM. Besides, the Ki in data set [1] is below 0.2 µM.
In turn, `O=c1cc(-c2ccc3c(c2)COC2(CCN(C4CCC4)CC2)O3)ccn1CC(F)(F)F` [Example 772] showed a melting point of 196 to 198 °C. Also, at human H3 receptor, the inhibitory constant (Ki) was below 0.2 µM. For the same compound, the inhibition constant (Ki) in data set [1] was below 0.2 µM.
In turn, `O=c1[nH]cc(-c2ccc3c(c2)COC2(CCN(C4CCC4)CC2)O3)cc1CO` [Example 773] came in with a melting point of 228 to 230 °C. Further, on human H3 receptor, the inhibition constant (Ki) was below 0.2 µM. Moreover, in data set [1], the Ki is below 0.2 µM.
The compound `CCSCc1cc(-c2ccc3c(c2)COC2(CCN(C4CCC4)CC2)O3)c[nH]c1=O` [Example 774] registered a melting point of 205 to 207 °C. On human H3 receptor, the inhibition constant Ki is below 0.2 µM. Further, in data set [1], the Ki is below 0.2 µM.
As to `O=c1cc(-c2ccc3c(c2)COC2(CCN(C4CCC4)CC2)O3)ccn1C(F)F` [Example 775], the melting point lay in the range of 175 to 177 °C. Further, the Ki on human H3 receptor was below 0.2 µM. Besides, in data set [1], the Ki is below 0.2 µM.
